Square brackets hold non-standard residues; d marks the D form. Peptide text beside a SMILES is read from it. * marks the point of attachment. Phe(F5) = N[C@@H](Cc1c(F)c(F)c(F)c(F)c1F)C(=O)O; Desaminotyrosyl = O=C(CCc1ccc(O)cc1)*; NMeY = CN[C@@H](Cc1ccc(O)cc1)C(=O)O; Agmatine = N=C(N)NCCCCN*; Nle = CCCC[C@H](N)C(=O)O; Orn = NCCC[C@H](N)C(=O)O; Abu = CC[C@H](N)C(=O)O; GABA = NCCCC(=O)O

This assay has as its target T1, GHRH receptor (Homo sapiens, UniProt Q02643).
T1 construct: Normal human pituitaries were purchased from the National Hormone and Peptide Program; tissue National Hormone and Peptide Program (A. F. Parlow); host or cells: normal human pituitary, membrane fraction
T1 sequence (Q02643 23-423): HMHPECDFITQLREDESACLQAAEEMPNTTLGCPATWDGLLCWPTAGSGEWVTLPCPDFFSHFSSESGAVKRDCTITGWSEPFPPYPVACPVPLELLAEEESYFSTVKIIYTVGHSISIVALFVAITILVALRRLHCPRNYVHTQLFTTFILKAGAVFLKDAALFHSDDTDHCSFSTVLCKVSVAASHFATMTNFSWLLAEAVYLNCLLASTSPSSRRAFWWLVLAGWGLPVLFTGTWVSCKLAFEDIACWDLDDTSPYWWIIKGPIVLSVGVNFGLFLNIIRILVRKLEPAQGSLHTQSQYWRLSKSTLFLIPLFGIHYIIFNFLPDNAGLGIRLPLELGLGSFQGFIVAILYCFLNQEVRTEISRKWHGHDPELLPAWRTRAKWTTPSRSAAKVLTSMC
The assay can be described thus: GHRH receptor binding, 125I-labeled JV-1-42 ligand competition, human pituitary membrane homogenates (Table 7). The following applies: 125I-labeled JV-1-42, human pituitary membranes. On the procedure:
Preparation of human pituitary membrane fraction and receptor binding of GHRH agonists were performed as previously described, by using a sensitive in vitro ligand competition assay based on binding of ^125I-labeled JV-1-42 to human pituitary membrane homogenates. Normal human pituitaries were purchased from the National Hormone and Peptide Program (A. F. Parlow, Los Angeles, County Harbor-UCLA Medical Center, Torrance, Calif.).
The IC50 is the concentration at which inhibition is half-maximal. The low end stands for higher potency, the high end for lower potency. `CCCC[C@H](NC(=O)[C@@H](NC(=O)[C@H](CC(=O)O)NC(=O)[C@H](CCC(N)=O)NC(=O)[C@H](CC(C)C)NC(=O)[C@H](CC(C)C)NC(=O)[C@H](CCCN)NC(=O)[C@H](CCCNC(=N)N)NC(=O)[C@H](C)NC(=O)[C@H](CO)NC(=O)[C@H](CC(C)C)NC(=O)[C@H](CCC(N)=O)NC(=O)[C@H](CC)NC(=O)[C@H](CC(C)C)NC(=O)[C@@H](NC(=O)[C@H](CCCN)NC(=O)[C@H](CCCNC(=N)N)NC(=O)[C@H](Cc1ccc(O)cc1)NC(=O)[C@H](CO)NC(=O)[C@H](CC(N)=O)NC(=O)[C@@H](NC(=O)[C@H](Cc1c(F)c(F)c(F)c(F)c1F)NC(=O)[C@@H](NC(=O)[C@H](C)NC(=O)[C@H](CC(=O)O)NC(=O)[C@@H](C)NC(=O)[C@H](Cc1ccc(O)cc1)NC)[C@@H](C)CC)[C@@H](C)O)C(C)C)[C@@H](C)CC)C(=O)N[C@@H](CC(=O)O)C(=O)NCCCCNC(=N)N` [Peptide P-20359, [N—Me-Tyr^1, D-Ala^2, Fpa5^6, Orn^12, Abu^15, Orn^21, Nle^27, Asp^28, Agm^29]hGH-RH(1-29)] (H-[NMeY][dA]DAI[Phe(F5)]TNSYR[Orn]VL[Abu]QLSAR[Orn]LLQDI[Nle]D-Agmatine) showed an IC50 of 3.05 nM. In other words, the single-digit nanomolar range.

For `CCCC[C@H](NC(=O)[C@@H](NC(=O)[C@H](CC(=O)O)NC(=O)[C@H](CCC(N)=O)NC(=O)[C@H](CC(C)C)NC(=O)[C@H](CC(C)C)NC(=O)[C@H](CCCN)NC(=O)[C@H](CCCNC(=N)N)NC(=O)[C@H](C)NC(=O)[C@H](CO)NC(=O)[C@H](CC(C)C)NC(=O)[C@H](CCC(N)=O)NC(=O)[C@H](CC)NC(=O)[C@H](CC(C)C)NC(=O)[C@@H](NC(=O)[C@H](CCCN)NC(=O)[C@H](CCCNC(=N)N)NC(=O)[C@H](Cc1ccc(O)cc1)NC(=O)[C@H](CO)NC(=O)[C@H](CCC(N)=O)NC(=O)[C@@H](NC(=O)[C@H](Cc1ccccc1)NC(=O)[C@@H](NC(=O)[C@H](C)NC(=O)[C@H](CC(=O)O)NC(=O)[C@@H](C)NC(=O)[C@H](Cc1ccc(O)cc1)NC)[C@@H](C)CC)[C@@H](C)O)C(C)C)[C@@H](C)CC)C(=O)N[C@@H](CC(=O)O)C(=O)NCCCCNC(=N)N` [Peptide P-20361, [N—Me-Tyr^1, D-Ala^2, Gln^8, Orn^12, Abu^15, Orn^21, Nle^27, Asp^28, Agm^29]hGH-RH(1-29)] (H-[NMeY][dA]DAIFTQSYR[Orn]VL[Abu]QLSAR[Orn]LLQDI[Nle]D-Agmatine), the IC50 is 0.82 nM. For `CCCC[C@H](NC(=O)[C@@H](NC(=O)[C@H](CC(=O)O)NC(=O)[C@H](CCC(N)=O)NC(=O)[C@H](CC(C)C)NC(=O)[C@H](CC(C)C)NC(=O)[C@H](CCCN)NC(=O)[C@H](CCCNC(=N)N)NC(=O)[C@H](C)NC(=O)[C@H](CO)NC(=O)[C@H](CC(C)C)NC(=O)[C@H](CCC(N)=O)NC(=O)[C@H](CC)NC(=O)[C@H](CC(C)C)NC(=O)[C@@H](NC(=O)[C@H](CCCN)NC(=O)[C@H](CCCNC(=N)N)NC(=O)[C@H](Cc1ccc(O)cc1)NC(=O)[C@H](CO)NC(=O)[C@H](CC(N)=O)NC(=O)[C@@H](NC(=O)[C@H](Cc1ccccc1)NC(=O)[C@@H](NC(=O)[C@H](C)NC(=O)[C@H](CC(=O)O)NC(=O)[C@@H](C)NC(=O)[C@H](Cc1ccc(O)cc1)NC)[C@@H](C)CC)[C@@H](C)O)C(C)C)[C@@H](C)CC)C(=O)N[C@@H](CC(=O)O)C(=O)NCCCCNC(=N)N` [Peptide P-20367, [N—Me-Tyr^1, D-Ala^2, Orn^12, Abu^15, Orn^21, Nle^27, Asp^28, Agm^29]hGH-RH(1-29)] (H-[NMeY][dA]DAIFTNSYR[Orn]VL[Abu]QLSAR[Orn]LLQDI[Nle]D-Agmatine), the IC50 was determined as 1.7 nM. Compared with the last compound, the IC50 is about 2.1-fold higher. As for `CCCC[C@H](NC(=O)[C@@H](NC(=O)[C@H](CC(=O)O)NC(=O)[C@H](CCC(N)=O)NC(=O)[C@H](CC(C)C)NC(=O)[C@H](CC(C)C)NC(=O)[C@H](CCCN)NC(=O)[C@H](CCCNC(=N)N)NC(=O)[C@H](C)NC(=O)[C@H](CO)NC(=O)[C@H](CC(C)C)NC(=O)[C@H](CCC(N)=O)NC(=O)[C@H](CC)NC(=O)[C@H](CC(C)C)NC(=O)[C@@H](NC(=O)[C@H](CCCN)NC(=O)[C@H](CCCNC(=N)N)NC(=O)[C@H](Cc1ccc(O)cc1)NC(=O)[C@H](CO)NC(=O)[C@H](CCC(N)=O)NC(=O)[C@@H](NC(=O)[C@H](Cc1ccccc1)NC(=O)[C@@H](NC(=O)[C@H](C)NC(=O)[C@H](CC(=O)O)NC(=O)[C@@H](C)NC(=O)CCc1ccc(O)cc1)[C@@H](C)CC)[C@@H](C)O)C(C)C)[C@@H](C)CC)C(=O)N[C@@H](CC(=O)O)C(=O)N[C@H](CCCNC(=N)N)C(=O)NC` [Peptide P-27401, [Dat^1, D-Ala^2, Gln^8, Orn^12, Abu^15, Orn^21, Nle^27, Asp^28, D-Arg^29]hGH-RH(1-29)NH—CH3] (Desaminotyrosyl-[dA]DAIFTQSYR[Orn]VL[Abu]QLSAR[Orn]LLQDI[Nle]D[dR]-NHMe), the IC50 amounted to 2.74 nM. In turn, `CCCC[C@H](NC(=O)[C@@H](NC(=O)[C@H](CC(=O)O)NC(=O)[C@H](CCC(N)=O)NC(=O)[C@H](CC(C)C)NC(=O)[C@H](CC(C)C)NC(=O)[C@H](CCCN)NC(=O)[C@H](CCCNC(=N)N)NC(=O)[C@H](C)NC(=O)[C@H](CO)NC(=O)[C@H](CC(C)C)NC(=O)[C@H](CCC(N)=O)NC(=O)[C@H](CC)NC(=O)[C@H](CC(C)C)NC(=O)[C@@H](NC(=O)[C@H](CCCN)NC(=O)[C@H](CCCNC(=N)N)NC(=O)[C@H](Cc1ccc(O)cc1)NC(=O)[C@H](CO)NC(=O)[C@H](CC(N)=O)NC(=O)[C@@H](NC(=O)[C@H](Cc1c(F)c(F)c(F)c(F)c1F)NC(=O)[C@@H](NC(=O)[C@H](C)NC(=O)[C@H](CC(=O)O)NC(=O)[C@@H](C)NC(=O)[C@H](Cc1ccc(O)cc1)NC)[C@@H](C)CC)[C@@H](C)O)C(C)C)[C@@H](C)CC)C(=O)N[C@@H](CO)C(=O)N[C@@H](CCCNC(=N)N)C(=O)NCCCC(=O)NC` [Peptide P-27414, [N—Me-Tyr^1, D-Ala^2, Fpa5^6, Orn^12, Abu^15, Orn^21, Nle^27, Gab^30]hGH-RH(1-30)NH—CH3] (H-[NMeY][dA]DAI[Phe(F5)]TNSYR[Orn]VL[Abu]QLSAR[Orn]LLQDI[Nle]SR[GABA]-NHMe) returned an IC50 of 1.56 nM. This IC50 lies about 1.8-fold lower than the previous one. The compound `CCCC[C@H](NC(=O)[C@@H](NC(=O)[C@H](CC(=O)O)NC(=O)[C@H](CCC(N)=O)NC(=O)[C@H](CC(C)C)NC(=O)[C@H](CC(C)C)NC(=O)[C@H](CCCN)NC(=O)[C@H](CCCNC(=N)N)NC(=O)[C@H](C)NC(=O)[C@H](CO)NC(=O)[C@H](CC(C)C)NC(=O)[C@H](CCC(N)=O)NC(=O)[C@H](CC)NC(=O)[C@H](CC(C)C)NC(=O)[C@@H](NC(=O)[C@H](CCCN)NC(=O)[C@H](CCCNC(=N)N)NC(=O)[C@H](Cc1ccc(O)cc1)NC(=O)[C@H](CO)NC(=O)[C@H](CCC(N)=O)NC(=O)[C@@H](NC(=O)[C@H](Cc1ccccc1)NC(=O)[C@@H](NC(=O)[C@H](C)NC(=O)[C@H](CC(=O)O)NC(=O)[C@@H](C)NC(=O)[C@H](Cc1ccc(O)cc1)NC)[C@@H](C)CC)[C@@H](C)O)C(C)C)[C@@H](C)CC)C(=O)N[C@@H](CC(=O)O)C(=O)N[C@@H](CCCNC(=N)N)C(=O)NCC` [Peptide P-28420, [N—Me-Tyr^1, D-Ala^2, Gln^8, Orn^12, Abu^15, Orn^21, Nle^27, Asp^28]hGH-RH(1-29)NH—CH2—CH3] (H-[NMeY][dA]DAIFTQSYR[Orn]VL[Abu]QLSAR[Orn]LLQDI[Nle]DR-NHEt) showed an IC50 of 0.52 nM. This IC50 lies about 3-fold lower than the previous one. With `CCCC[C@H](NC(=O)[C@@H](NC(=O)[C@H](CC(=O)O)NC(=O)[C@H](CCC(N)=O)NC(=O)[C@H](CC(C)C)NC(=O)[C@H](CC(C)C)NC(=O)[C@H](CCCN)NC(=O)[C@H](CCCNC(=N)N)NC(=O)[C@H](C)NC(=O)[C@H](CO)NC(=O)[C@H](CC(C)C)NC(=O)[C@H](CCC(N)=O)NC(=O)[C@H](CC)NC(=O)[C@H](CC(C)C)NC(=O)[C@@H](NC(=O)[C@H](CCCN)NC(=O)[C@H](CCCNC(=N)N)NC(=O)[C@H](Cc1ccc(O)cc1)NC(=O)[C@H](CO)NC(=O)[C@H](CC(N)=O)NC(=O)[C@@H](NC(=O)[C@H](Cc1ccccc1)NC(=O)[C@@H](NC(=O)[C@H](C)NC(=O)[C@H](CC(=O)O)NC(=O)[C@@H](C)NC(=O)[C@H](Cc1ccc(O)cc1)NC)[C@@H](C)CC)[C@@H](C)O)C(C)C)[C@@H](C)CC)C(=O)N[C@@H](CC(=O)O)C(=O)N[C@@H](CCCNC(=N)N)C(=O)NCC` [Peptide P-28421, [N—Me-Tyr^1, D-Ala^2, Orn^12, Abu^15, Orn^21, Nle^27, Asp^28]hGH-RH(1-29)NH—CH2—CH3] (H-[NMeY][dA]DAIFTNSYR[Orn]VL[Abu]QLSAR[Orn]LLQDI[Nle]DR-NHEt), the half-maximal inhibitory concentration (IC50) stood at 1.47 nM.

The record behind these values is US9079974B2, “GH-RH analogs with potent agonistic effects” (The University of Miami, priority 2011, dated 2015).
